Experimental data: patent US5824315A, “Binding affinity of antigenic peptides for MHC molecules” (Anergen, Inc., priority 1996, dated 1998)

Test system: HLA-DR2
Settings: pH 6
Experimental: In order to compare the binding of various MBP peptides to DR2, purified DR2 at a concentration of 20 μg/ml was incubated with 50-fold molar excess of Bt-MBP peptides for 72 hours at varying pH, ranging from pH 5-10 binding buffer at 37° C. […] Monoclonal antibody against HLA-DR2 at a concentration of 20 μg/ml and BSA-biotin (with 0.014-1.80 pmoles (0.117-15 ng), were coated in 96-well microtiter plates (Nunc poly-Sorb, Baxter) overnight at 4° C. Plates were blocked with 1% fish gelatin. Prepared HLA-DR2-biotin peptide complexes were applied to the wells in duplicates ranging from 12.5 ng-200 ng (0.21-3.32 pmoles) in appropriate dilution buffers and incubated for 2 hours at room temperature. The wells were washed three times with PBS containing 0.01% Tween-20 to remove unbound peptide. Bound biotinylated peptides were detected colorimetrically using alkaline phosphatase conjugated streptavidin and p-nitrophenyl phosphate (disodium) in 0.1M diethnolamine as a substrate. Wells were read at 405 nm in microliter plate reader (Molecular Devices). The percent of DR2 with bound peptide was calculated using standard BSA-biotin (eight biotin molecules per BSA). Purified HLA-DR2 used in this study contains a mixture of DRB5*0101 and DRB1*1501 beta chains.
In the first experiment, the binding of MBP(84-102) peptide to purified DR2 was compared with MBP(83-102)Y83 peptide at various pH.

Structure (SMILES) | percent of DR2 occupied with bound peptide
CC[C@H](C)[C@H](NC(=O)[C@H](CC(N)=O)NC(=O)[C@H](CCCCN)NC(=O)[C@H](Cc1ccccc1)NC(=O)[C@H](Cc1ccccc1)NC(=O)[C@H](Cc1c[nH]cn1)NC(=O)[C@@H](NC(=O)[C@@H](NC(=O)[C@@H]1CCCN1C(=O)[C@H](CC(N)=O)NC(=O)[C@H](CCC(=O)O)NC(=O)[C@H](CC(=O)O)NC(=O)[C@H](CCC(N)=O)NC(=O)CCCC[C@@H]1SC[C@@H]2NC(=O)N[C@@H]21)C(C)C)C(C)C)C(=O)N[C@H](C(=O)N[C@H](C(=O)N1CCC[C@H]1C(=O)N[C@@H](CCCNC(=N)N)C(=O)N[C@H](C(=O)N1CCC[C@H]1C(=O)N1CCC[C@H]1C(N)=O)[C@@H](C)O)[C@@H](C)O)C(C)C [MBP(83-102)Q83, Bt-QDENPVVHFF KNIVTPRTPP-NH2] | 40%
CC[C@H](C)[C@H](NC(=O)[C@H](CC(N)=O)NC(=O)[C@H](CCCCN)NC(=O)[C@H](Cc1ccccc1)NC(=O)[C@H](Cc1ccccc1)NC(=O)[C@H](Cc1c[nH]cn1)NC(=O)[C@@H](NC(=O)[C@@H](NC(=O)[C@@H]1CCCN1C(=O)[C@H](CC(N)=O)NC(=O)[C@H](CCC(=O)O)NC(=O)[C@H](CC(=O)O)NC(=O)[C@H](CCCCN)NC(=O)CCCC[C@@H]1SC[C@@H]2NC(=O)N[C@@H]21)C(C)C)C(C)C)C(=O)N[C@H](C(=O)N[C@H](C(=O)N1CCC[C@H]1C(=O)N[C@@H](CCCNC(=N)N)C(=O)N[C@H](C(=O)N1CCC[C@H]1C(=O)N1CCC[C@H]1C(N)=O)[C@@H](C)O)[C@@H](C)O)C(C)C [MBP(83-102)K83, Bt-KDENPVVHFF KNIVTPRTPP-NH2] | 75%
CC[C@H](C)[C@H](NC(=O)[C@H](CC(N)=O)NC(=O)[C@H](CCCCN)NC(=O)[C@H](Cc1ccccc1)NC(=O)[C@H](Cc1ccccc1)NC(=O)[C@H](Cc1c[nH]cn1)NC(=O)[C@@H](NC(=O)[C@@H](NC(=O)[C@@H]1CCCN1C(=O)[C@H](CC(N)=O)NC(=O)[C@H](CCC(=O)O)NC(=O)[C@H](CC(=O)O)NC(=O)CCCC[C@@H]1SC[C@@H]2NC(=O)N[C@@H]21)C(C)C)C(C)C)C(=O)N[C@H](C(=O)N[C@H](C(=O)N1CCC[C@H]1C(=O)N[C@@H](CCCNC(=N)N)C(=O)N[C@H](C(=O)N1CCC[C@H]1C(=O)N1CCC[C@H]1C(N)=O)[C@@H](C)O)[C@@H](C)O)C(C)C [MBP(84-102), Bt-DENPVVHFFK NIVTPRTPP-NH2, reference compound] | 45%
CC[C@H](C)[C@H](NC(=O)[C@H](CC(N)=O)NC(=O)[C@H](CCCCN)NC(=O)[C@H](Cc1ccccc1)NC(=O)[C@H](Cc1ccccc1)NC(=O)[C@H](Cc1c[nH]cn1)NC(=O)[C@@H](NC(=O)[C@@H](NC(=O)[C@@H]1CCCN1C(=O)[C@H](CC(N)=O)NC(=O)[C@H](CCC(=O)O)NC(=O)[C@H](CC(=O)O)NC(=O)[C@H](Cc1ccccc1)NC(=O)CCCC[C@@H]1SC[C@@H]2NC(=O)N[C@@H]21)C(C)C)C(C)C)C(=O)N[C@H](C(=O)N[C@H](C(=O)N1CCC[C@H]1C(=O)N[C@@H](CCCNC(=N)N)C(=O)N[C@H](C(=O)N1CCC[C@H]1C(=O)N1CCC[C@H]1C(N)=O)[C@@H](C)O)[C@@H](C)O)C(C)C [MBP(83-102)F83, Bt-FDENPVVHFF KNIVTPRTPP-NH2] | 12%
CC[C@H](C)[C@H](NC(=O)[C@H](CC(N)=O)NC(=O)[C@H](CCCCN)NC(=O)[C@H](Cc1ccccc1)NC(=O)[C@H](Cc1ccccc1)NC(=O)[C@H](Cc1c[nH]cn1)NC(=O)[C@@H](NC(=O)[C@@H](NC(=O)[C@@H]1CCCN1C(=O)[C@H](CC(N)=O)NC(=O)[C@H](CCC(=O)O)NC(=O)[C@H](CC(=O)O)NC(=O)[C@H](C)NC(=O)CCCC[C@@H]1SC[C@@H]2NC(=O)N[C@@H]21)C(C)C)C(C)C)C(=O)N[C@H](C(=O)N[C@H](C(=O)N1CCC[C@H]1C(=O)N[C@@H](CCCNC(=N)N)C(=O)N[C@H](C(=O)N1CCC[C@H]1C(=O)N1CCC[C@H]1C(N)=O)[C@@H](C)O)[C@@H](C)O)C(C)C [MBP(83-102)A83, Bt-ADENPVVHFF KNIVTPRTPP-NH2] | 100%
CC[C@H](C)[C@H](NC(=O)[C@H](CC(N)=O)NC(=O)[C@H](CCCCN)NC(=O)[C@H](Cc1ccccc1)NC(=O)[C@H](Cc1ccccc1)NC(=O)[C@H](Cc1c[nH]cn1)NC(=O)[C@@H](NC(=O)[C@@H](NC(=O)[C@@H]1CCCN1C(=O)[C@H](CC(N)=O)NC(=O)[C@H](CCC(=O)O)NC(=O)[C@H](CC(=O)O)NC(=O)[C@H](CC(=O)O)NC(=O)CCCC[C@@H]1SC[C@@H]2NC(=O)N[C@@H]21)C(C)C)C(C)C)C(=O)N[C@H](C(=O)N[C@H](C(=O)N1CCC[C@H]1C(=O)N[C@@H](CCCNC(=N)N)C(=O)N[C@H](C(=O)N1CCC[C@H]1C(=O)N1CCC[C@H]1C(N)=O)[C@@H](C)O)[C@@H](C)O)C(C)C [MBP(83-102)D83, Bt-DDENPVVHFF KNIVTPRTPP-NH2] | 55%
